{"source": "paper PMC7023430", "about": "“4-Aminobenzoic Acid Derivatives: Converting Folate Precursor to Antimicrobial and Cytotoxic Agents” (Biomolecules, 2019)", "key": {"[1]": {"test_system": "methicillin-resistant Staphylococcus aureus ATCC 43300, CCM 4750 (MRSA)", "assay": "Antibacterial microdilution broth method, MRSA", "format": "cell-based", "conditions": "Staphylococcus aureus"}, "[2]": {"test_system": "Escherichia coli ATCC 25922, CCM 3954", "assay": "Antibacterial microdilution broth method, E. coli", "format": "cell-based", "conditions": "Escherichia coli"}, "Trichosporon asahii 1188": {"test_system": "Trichosporon asahii 1188", "assay": "Antifungal microdilution broth method, T. asahii", "format": "cell-based", "description": "(§1) The antifungal properties were evaluated against five yeast strains, namely: Candida albicans ATCC 44859, Candida tropicalis 156, Candida krusei […], Candida glabrata 20/I, Trichosporon […] 1188 and three strains of filamentous fungi: Aspergillus fumigatus 231, Lichtheimia corymbifera 272, and Trichophyton interdigitale 445. A microdilution broth method was performed according to EUCAST II, III instructions with slight modifications. Briefly, tested compounds were dissolved in DMSO and diluted in a twofold manner with RPMI-1640 medium with L-glutamine, supplemented with 2% glucose (w/v) and buffered to pH 7.0 with 3 morpholinopropane-1-sulfonic acid (all components were purchased from Sigma-Aldrich, USA). […] Positive controls consisted of test microbe solely, while negative controls consisted of medium and DMSO. Internal quality control was included too. Visual inspection was used for MIC endpoints evaluation. The experiments were conducted in duplicates. For the results to be valid, the difference in MIC determined from two parallel measurements must not be greater than one step on the dilution scale. PABA and triazole antimycotic drug fluconazole were involved as the reference compounds."}, "[3]": {"test_system": "Enterococcus faecalis ATCC 29212, CCM 4224", "assay": "Antibacterial microdilution broth method, E. faecalis", "format": "cell-based", "conditions": "Enterococcus faecalis"}, "[4]": {"test_system": "Klebsiella pneumoniae D 11750/08"}, "[5]": {"test_system": "Mycobacterium tuberculosis H37Rv (331/88)", "assay": "Antimycobacterial micromethod in Šula's medium, M. tuberculosis", "format": "cell-based"}, "[6]": {"test_system": "Mycobacterium kansasii 235/80", "assay": "Antimycobacterial micromethod in Šula's medium, M. kansasii 235/80", "format": "cell-based"}, "Candida glabrata 20/I": {"test_system": "Candida glabrata 20/I", "assay": "Antifungal microdilution broth method, C. glabrata", "format": "cell-based", "conditions": "Nakaseomyces glabratus", "description": "as §1"}, "eight fungal strains": {"test_system": "eight fungal strains", "assay": "Antifungal activity", "format": "cell-based", "conditions": "statement over the fungal panel; time not stated", "description": "as §1"}, "[7]": {"test_system": "Lichtheimia corymbifera 272", "assay": "Antifungal microdilution broth method, L. corymbifera", "format": "cell-based", "description": "as §1"}, "[8]": {"test_system": "Pseudomonas aeruginosa ATCC 27853, CCM 3955", "assay": "Antibacterial microdilution broth method, P. aeruginosa", "format": "cell-based", "conditions": "Pseudomonas aeruginosa, P. aeruginosa"}, "[9]": {"test_system": "four Gram-positive and four Gram-negative strains", "assay": "Antibacterial activity", "format": "cell-based", "conditions": "statement over the bacterial panel; time not stated; read-out: MIC, antibacterial activity"}, "[10]": {"test_system": "Trichophyton interdigitale 445", "assay": "Antifungal microdilution broth method, T. interdigitale", "format": "cell-based", "description": "as §1"}, "[11]": {"test_system": "Staphylococcus epidermidis H 6966/08", "assay": "Antibacterial microdilution broth method, S. epidermidis", "format": "cell-based", "conditions": "Staphylococcus epidermidis, H6966/08, S. epidermidis"}, "[12]": {"test_system": "Mycobacterium avium 330/88", "assay": "Antimycobacterial micromethod in Šula's medium, M. avium", "format": "cell-based"}, "[13]": {"test_system": "Staphylococcus aureus ATCC 29213, CCM 4223", "assay": "Antibacterial microdilution broth method, S. aureus", "format": "cell-based"}, "Candida tropicalis 156": {"test_system": "Candida tropicalis 156", "assay": "Antifungal microdilution broth method, C. tropicalis", "format": "cell-based", "description": "as §1"}, "[14]": {"test_system": "M. kansasii 6509/96 (clinical isolate)", "assay": "Antimycobacterial micromethod in Šula's medium, M. kansasii 6509/96", "format": "cell-based", "conditions": "Mycobacterium kansasii"}, "[15]": {"test_system": "Candida albicans ATCC 44859", "assay": "Antifungal microdilution broth method, C. albicans", "format": "cell-based", "description": "as §1"}, "[16]": {"test_system": "E. coli, Listeria monocytogenes and Salmonella enteritidis", "parameters": "method as in PMID 7730199", "conditions": "strains distinct from this study; cited from earlier work"}, "phytopathogenic fungi": {"test_system": "phytopathogenic fungi", "parameters": "method as in PMID 29283262", "conditions": "read-out: IC50 of PABA, phytopathogenic fungi; cited from earlier work"}, "[17]": {"test_system": "ESBL-positive Klebsiella pneumoniae J 14368/08"}, "[18]": {"test_system": "Aspergillus fumigatus 231", "assay": "Antifungal microdilution broth method, A. fumigatus", "format": "cell-based", "description": "as §1"}, "Candida krusei E28": {"test_system": "Candida krusei E28", "assay": "Antifungal microdilution broth method, C. krusei", "format": "cell-based", "conditions": "Pichia kudriavzevii", "description": "as §1"}}, "note": "Read-outs that look alike come from different tables or passages of the source."}
{"smiles": "Nc1ccc(C(=O)O)cc1", "note": "[PABA 1, 4-aminobenzoic acid]", "values": [{"measurement": "MIC", "setting": "[1]; 24 h incubation, read-out: MIC MRSA 24 h", "result": "> 500", "unit": "µM"}, {"measurement": "MIC", "setting": "[1]; 48 h incubation, read-out: MIC MRSA 48 h", "result": "> 500", "unit": "µM"}, {"measurement": "MIC", "setting": "[2]; 24 h incubation, read-out: MIC EC 24 h", "result": "> 500", "unit": "µM"}, {"measurement": "MIC", "setting": "[2]; 48 h incubation, read-out: MIC EC 48 h", "result": "> 500", "unit": "µM"}, {"measurement": "MIC", "setting": "Trichosporon asahii 1188; 24 h, read-out: MIC TA 24 h", "result": "> 500", "unit": "µM"}, {"measurement": "MIC", "setting": "Trichosporon asahii 1188; 48 h, read-out: MIC TA 48 h", "result": "> 500", "unit": "µM"}, {"measurement": "MIC", "setting": "[3]; 24 h incubation, read-out: MIC EF 24 h", "result": "> 500", "unit": "µM"}, {"measurement": "MIC", "setting": "[3]; 48 h incubation, read-out: MIC EF 48 h", "result": "> 500", "unit": "µM"}, {"measurement": "MIC KP 24 h", "setting": "[4]; 24 h", "result": ">500", "unit": "µM"}, {"measurement": "MIC KP 48 h", "setting": "[4]; 48 h", "result": ">500", "unit": "µM"}, {"measurement": "MIC", "setting": "[5]; 336 h, 14 days incubation at 37 °C, read-out: MIC Mtb. 331/88 14 d", "result": "> 1000", "unit": "µM"}, {"measurement": "MIC", "setting": "[5]; 504 h, 21 days incubation at 37 °C, read-out: MIC Mtb. 331/88 21 d", "result": "> 1000", "unit": "µM"}, {"measurement": "MIC", "setting": "[6]; 235/80, 168 h, 7 days incubation at 37 °C, read-out: MIC M. kansasii 235/80 7 d", "result": 1000, "unit": "µM"}, {"measurement": "MIC", "setting": "[6]; 235/80, 336 h, 14 days incubation at 37 °C, read-out: MIC M. kansasii 235/80 14 d", "result": "> 1000", "unit": "µM"}, {"measurement": "MIC", "setting": "[6]; 235/80, 504 h, 21 days incubation at 37 °C, read-out: MIC M. kansasii 235/80 21 d", "result": "> 1000", "unit": "µM"}, {"measurement": "MIC", "setting": "Candida glabrata 20/I; 24 h, read-out: MIC CG 24 h", "result": "> 500", "unit": "µM"}, {"measurement": "MIC", "setting": "Candida glabrata 20/I; 48 h, read-out: MIC CG 48 h", "result": "> 500", "unit": "µM"}, {"measurement": "MIC", "setting": "eight fungal strains", "result": "> 500", "unit": "µM"}, {"measurement": "MIC", "setting": "[7]; 24 h, read-out: MIC LC 24 h", "result": "> 500", "unit": "µM"}, {"measurement": "MIC", "setting": "[7]; 48 h, read-out: MIC LC 48 h", "result": "> 500", "unit": "µM"}, {"measurement": "MIC", "setting": "[8]; 24 h incubation, read-out: MIC PA 24 h", "result": "> 500", "unit": "µM"}, {"measurement": "MIC", "setting": "[8]; 48 h incubation, read-out: MIC PA 48 h", "result": "> 500", "unit": "µM"}, {"measurement": "MIC", "setting": "[9]", "result": "> 500", "unit": "µM"}, {"measurement": "MIC", "setting": "[10]; 72 h, read-out: MIC TI 72 h", "result": "> 500", "unit": "µM"}, {"measurement": "MIC", "setting": "[10]; 120 h, read-out: MIC TI 120 h", "result": "> 500", "unit": "µM"}, {"measurement": "MIC", "setting": "[11]; 24 h incubation, read-out: MIC SE 24 h", "result": "> 500", "unit": "µM"}, {"measurement": "MIC", "setting": "[11]; 48 h incubation, read-out: MIC SE 48 h", "result": "> 500", "unit": "µM"}, {"measurement": "MIC", "setting": "[12]; 330/88, 336 h, 14 days incubation at 37 °C, read-out: MIC M. avium 330/88 14 d", "result": "> 1000", "unit": "µM"}, {"measurement": "MIC", "setting": "[12]; 330/88, 504 h, 21 days incubation at 37 °C, read-out: MIC M. avium 330/88 21 d", "result": "> 1000", "unit": "µM"}, {"measurement": "MIC", "setting": "[13]; 24 h incubation, read-out: MIC SA 24 h", "result": "> 500", "unit": "µM"}, {"measurement": "MIC", "setting": "[13]; 48 h incubation, read-out: MIC SA 48 h", "result": "> 500", "unit": "µM"}, {"measurement": "MIC", "setting": "Candida tropicalis 156; 24 h, read-out: MIC CT 24 h", "result": "> 500", "unit": "µM"}, {"measurement": "MIC", "setting": "Candida tropicalis 156; 48 h, read-out: MIC CT 48 h", "result": "> 500", "unit": "µM"}, {"measurement": "MIC", "setting": "[14]; 168 h, 7 days incubation at 37 °C, read-out: MIC M. kansasii 6509/96 7 d", "result": 1000, "unit": "µM"}, {"measurement": "MIC", "setting": "[14]; 336 h, 14 days incubation at 37 °C, read-out: MIC M. kansasii 6509/96 14 d", "result": 1000, "unit": "µM"}, {"measurement": "MIC", "setting": "[14]; 504 h, 21 days incubation at 37 °C, read-out: MIC M. kansasii 6509/96 21 d", "result": 1000, "unit": "µM"}, {"measurement": "MIC", "setting": "[15]; ATCC44859, 24 h, read-out: MIC CA 24 h", "result": "> 500", "unit": "µM"}, {"measurement": "MIC", "setting": "[15]; ATCC44859, 48 h, read-out: MIC CA 48 h", "result": "> 500", "unit": "µM"}, {"measurement": "MIC of PABA", "setting": "[16]", "result": "9000 to 24000", "unit": "µM"}, {"measurement": "IC50", "setting": "phytopathogenic fungi", "result": "1000 to 3000", "unit": "µM"}, {"measurement": "MIC KP-E 24 h", "setting": "[17]; 24 h", "result": ">500", "unit": "µM"}, {"measurement": "MIC KP-E 48 h", "setting": "[17]; 48 h", "result": ">500", "unit": "µM"}, {"measurement": "MIC", "setting": "[18]; 24 h, read-out: MIC AF 24 h", "result": "> 500", "unit": "µM"}, {"measurement": "MIC", "setting": "[18]; 48 h, read-out: MIC AF 48 h", "result": "> 500", "unit": "µM"}, {"measurement": "MIC", "setting": "Candida krusei E28; 24 h, read-out: MIC CK 24 h", "result": "> 500", "unit": "µM"}, {"measurement": "MIC", "setting": "Candida krusei E28; 48 h, read-out: MIC CK 48 h", "result": "> 500", "unit": "µM"}]}
